According to US20250320279A1, “UNGULATE-DERIVED POLYCLONAL IMMUNOGLOBULIN SPECIFIC FOR INFLUENZA VIRUS AND USES THEREOF” (priority 2021, published 2025):

System: oseltamivir-resistant influenza A/Hong Kong/2369/2009 (H1N1pdm) H275Y
Set-up: species or system BALB/c mice
Conditions: mouse, in vivo

SMILES: CCOC(=O)C1=C[C@@H](OC(CC)CC)[C@H](NC(C)=O)[C@@H](N)C1 [oseltamivir]
- protection from weight loss (mean body weights): did not protect mice from weight loss
